From DBAASP
In brackets after ≈: the same amount, converted by molar mass.

Tests used:
Assay in all cases: ≥ marks a high value that may be exact or a test limit, other limits are often not marked, values filed in µg/mL are converted to µM
[1] = system: Klebsiella pneumoniae ATCC 700603
[2] = system: Bacillus subtilis ATCC 6633
[3] = system: Pseudomonas aeruginosa ATCC 27853
[4] = system: Staphylococcus aureus ATCC 25923
[5] = system: Escherichia coli ATCC 25922
[6] = system: Staphylococcus epidermidis ATCC 12228
[7] = system: Bacillus subtilis ATCC 23857
[8] = system: Enterococcus faecalis ATCC 29212
[9] = system: Acinetobacter baumannii ATCC 19606
[10] = system: Candida albicans ATCC 90028
[11] = system: Staphylococcus aureus NCTC 8325
[12] = system: Salmonella enterica subsp. enterica serovar Typhimurium ATCC 14028
Klebsiella pneumoniae = system: Klebsiella pneumoniae
Salmonella typhimurium = system: Salmonella typhimurium
Staphylococcus aureus = system: Staphylococcus aureus
Bacillus subtilis = system: Bacillus subtilis
Escherichia coli = system: Escherichia coli
Pseudomonas aeruginosa = system: Pseudomonas aeruginosa
[13] = system: Klebsiella pneumoniae ATCC 13883
[14] = system: Staphylococcus aureus ATCC 43300
[15] = system: Staphylococcus epidermidis
[16] = system: Candida albicans ATCC 10231
Bacillus cereus = system: Bacillus cereus
[17] = system: Escherichia coli DH5alpha

CC(=O)N[C@@H](Cc1ccccc1)C(=O)N[C@@H](CCCCN)C(=O)N[C@@H](CCCCN)C(=O)N[C@@H](CC(C)C)C(=O)N[C@@H](CCCCN)C(=O)N[C@@H](CCCCN)C(=O)N[C@@H](CC(C)C)C(=O)N[C@@H](Cc1ccccc1)C(=O)N[C@@H](CO)C(=O)N[C@@H](CCCCN)C(=O)N[C@@H](CC(C)C)C(=O)N[C@@H](CCCCN)C(=O)N[C@@H](CC(N)=O)C(=O)N[C@@H](Cc1c[nH]c2ccccc12)C(=O)N[C@@H](Cc1c[nH]c2ccccc12)C(N)=O [FKKLKKLFSKLKNWW]
MIC [1]: 3.2 µM (≈ 6.51 µg/mL)
MIC [2]: 1.6 µM (≈ 3.26 µg/mL)
MIC [3]: 3.2 µM (≈ 6.51 µg/mL)
MIC [4]: 3.2 µM (≈ 6.51 µg/mL)
MIC [5]: 1.6 µM (≈ 3.26 µg/mL)
MIC [6]: 1.6 µM (≈ 3.26 µg/mL)

C[C@H](NC(=O)[C@H](C)NC(=O)[C@@H](NC(=O)[C@H](CCCCN)NC(=O)[C@H](C)NC(=O)[C@H](CCCN=C(N)N)NC(=O)[C@H](CCCCN)NC(=O)[C@H](C)NC(=O)[C@H](C)NC(=O)CN)[C@@H](C)O)C(N)=O [GAAKRAKTAA]
MIC [1]: > 512 µM
MIC [7]: ≥ 512 µM
MIC [8]: > 512 µM
MIC [9]: > 512 µM
MIC [3]: > 512 µM
MIC [4]: > 512 µM
MIC [5]: > 512 µM
MIC [6]: > 512 µM

CC[C@H](C)[C@H](NC(=O)[C@H](CC(C)C)NC(=O)[C@H](CC(=O)O)NC(=O)[C@H](CO)NC(=O)[C@@H](NC(=O)[C@H](C)NC(=O)[C@H](CCCCN)NC(=O)[C@@H](NC(=O)[C@H](CCCCN)NC(=O)[C@H](Cc1cnc[nH]1)NC(=O)[C@@H]1CCCN1C(=O)[C@@H](NC(=O)[C@H](CC(C)C)NC(=O)[C@@H]1CCCN1C(=O)CNC(=O)[C@@H](NC(=O)[C@H](Cc1ccc(O)cc1)NC(=O)[C@H](CCCCN)NC(=O)[C@H](CCSC)NC(=O)[C@H](Cc1ccccc1)NC(=O)CN)[C@@H](C)CC)[C@@H](C)CC)C(C)C)[C@@H](C)CC)C(N)=O [GFMKYIGPLIPHKVKAISDLI]
MIC [10]: ≥ 200 µM
MIC [5]: 100 µM (≈ 234 µg/mL)
MIC [11]: ≥ 200 µM

CC[C@H](C)[C@H](NC(=O)[C@H](CC(C)C)NC(=O)[C@H](CCCCN)NC(=O)[C@H](CO)NC(=O)[C@@H](NC(=O)[C@H](C)NC(=O)[C@H](CCCCN)NC(=O)[C@@H](NC(=O)[C@H](C)NC(=O)[C@H](Cc1cnc[nH]1)NC(=O)[C@@H]1CCCN1C(=O)[C@@H](NC(=O)[C@H](CC(C)C)NC(=O)[C@@H]1CCCN1C(=O)[C@H](CCCCN)NC(=O)[C@@H](NC(=O)[C@H](Cc1ccc(O)cc1)NC(=O)[C@H](CCCCN)NC(=O)[C@H](CCSC)NC(=O)[C@H](Cc1ccccc1)NC(=O)CN)[C@@H](C)CC)[C@@H](C)CC)C(C)C)[C@@H](C)CC)C(=O)O [GFMKYIKPLIPHAVKAISKLI]
MIC [10]: ≥ 50 µM
MIC [5]: 12.5 µM (≈ 29.6 µg/mL)
MIC [11]: 25 µM (≈ 59.2 µg/mL)

CC[C@H](C)[C@H](NC(=O)[C@H](Cc1ccc(O)cc1)NC(=O)[C@@H](NC(=O)[C@@H]1CCCN1C(=O)[C@H](CCCN=C(N)N)NC(=O)[C@H](CC(N)=O)NC(=O)[C@H](CC(N)=O)NC(=O)CN)C(C)C)C(=O)N1CCC[C@H]1C(=O)N[C@@H](CCC(N)=O)C(=O)N1CCC[C@H]1C(=O)N[C@@H](CCCN=C(N)N)C(=O)N1CCC[C@H]1C(=O)N[C@@H](Cc1cnc[nH]1)C(=O)N1CCC[C@H]1C(=O)N[C@@H](CCCN=C(N)N)C(=O)N[C@@H](CC(C)C)C(=O)O [GNNRPVYIPQPRPHPRL]
MIC [12]: > 128 µM
MIC (Klebsiella pneumoniae): > 128 µM
MIC [5]: 128 µM (≈ 257 µg/mL)

CC(C)[C@H](NC(=O)CNC(=O)[C@H](CCCN=C(N)N)NC(=O)[C@@H](NC(=O)[C@@H](NC(=O)[C@@H](NC(=O)[C@H](CCCN=C(N)N)NC(=O)CNC(=O)[C@@H](NC(=O)[C@H](CCCN=C(N)N)NC(=O)[C@@H](NC(=O)[C@@H](NC(=O)[C@@H](NC(=O)CN)C(C)C)C(C)C)C(C)C)C(C)C)C(C)C)C(C)C)C(C)C)C(=O)N[C@@H](CCCN=C(N)N)C(=O)N[C@@H](CCCN=C(N)N)C(N)=O [GVVVRVGRVVVRGVRR]
MIC (Salmonella typhimurium): 8 µM (≈ 14.1 µg/mL)
MIC (Staphylococcus aureus): 16 µM (≈ 28.2 µg/mL)
MIC (Bacillus subtilis): 8 µM (≈ 14.1 µg/mL)
MIC (Escherichia coli): 8 µM (≈ 14.1 µg/mL)

CC(C)[C@H](NC(=O)CNC(=O)[C@@H](N)Cc1cnc[nH]1)C(=O)N[C@@H](CO)C(=O)NCC(=O)N[C@@H](Cc1cnc[nH]1)C(=O)NCC(=O)N[C@@H](CCC(N)=O)C(=O)N[C@@H](Cc1cnc[nH]1)C(=O)NCC(=O)N[C@H](C(=O)N[C@@H](Cc1cnc[nH]1)C(=O)NCC(=O)O)C(C)C [HGVSGHGQHGVHG]
MIC [8]: > 101 µM
MIC (Pseudomonas aeruginosa): 25.3 µM (≈ 32 µg/mL)
MIC (Staphylococcus aureus): 50.6 µM (≈ 64 µg/mL)
MIC [13]: 12.6 µM (≈ 16 µg/mL)
MIC (Klebsiella pneumoniae): 12.6 µM (≈ 16 µg/mL)
MIC [4]: 12.6 µM (≈ 16 µg/mL)
MIC [14]: > 101 µM
MIC [15]: 25.3 µM (≈ 32 µg/mL)
MIC [16]: > 101 µM
MIC (Escherichia coli): 12.6 µM (≈ 16 µg/mL)

CC[C@H](C)[C@H](NC(=O)CNC(=O)[C@H](CCCN=C(N)N)NC(=O)[C@H](C)NC(=O)[C@H](CCSC)NC(=O)[C@@H]1CCCN1C(=O)[C@H](C)NC(=O)CNC(=O)[C@H](CCC(=O)O)NC(=O)[C@H](CC(C)C)NC(=O)[C@@H]1CCCN1C(=O)[C@H](CC(=O)O)NC(=O)[C@H](Cc1ccccc1)NC(=O)[C@@H](N)CCCCN)C(=O)N[C@H](C(=O)N[C@@H](CC(C)C)C(=O)N[C@@H](CCC(=O)O)C(=O)N[C@@H](CCCCN)C(=O)N[C@H](C(=O)NCC(=O)O)C(C)C)C(C)C [KFDPLEGAPMARGIVLEKVG]
MIC (Bacillus cereus): ≥ 120 µM
MIC (Escherichia coli): > 120 µM

CC[C@H](C)[C@H](NC(=O)[C@H](CCCCN)NC(=O)[C@H](CCCCN)NC(=O)[C@H](C)NC(=O)[C@H](CC(C)C)NC(=O)[C@H](CC(N)=O)NC(=O)[C@@H](NC(=O)[C@H](CC(C)C)NC(=O)[C@@H](NC(=O)CNC(=O)[C@H](CC(C)C)NC(=O)[C@H](Cc1ccccc1)NC(=O)[C@@H](N)CC(N)=O)[C@@H](C)O)[C@@H](C)CC)C(=O)N[C@@H](CCSC)C(N)=O [NFLGTLINLAKKIM]
MIC [10]: ≥ 150 µM
MIC [5]: > 150 µM
MIC [11]: ≥ 48 µM

CC[C@H](C)[C@H](NC(=O)[C@@H](NC(=O)[C@H](C)NC(=O)[C@@H]1CCCN1C(=O)[C@H](Cc1ccccc1)NC(=O)[C@@H](NC(=O)[C@H](CCCCN)NC(=O)[C@H](CO)NC(=O)[C@H](C)NC(=O)[C@@H](NC(=O)[C@H](CCCN=C(N)N)NC(=O)CNC(=O)[C@@H](NC(=O)[C@@H](NC(=O)[C@@H]1CCCN1)C(C)C)C(C)C)C(C)C)C(C)C)C(C)C)C(=O)NCC(=O)N[C@@H](CC(C)C)C(=O)N[C@H](C(=O)N[C@@H](CCCCN)C(=O)N[C@@H](CCCCN)C(=O)O)C(C)C [PVVGRVASKVFPAVIGLVKK]
MIC (Bacillus cereus): ≥ 124 µM
MIC (Escherichia coli): > 124 µM

CC[C@H](C)[C@H](NC(=O)[C@H](Cc1ccc(O)cc1)NC(=O)[C@@H](NC(=O)[C@@H](NC(=O)[C@H](C)NC(=O)[C@@H]1CCCN1C(=O)[C@@H](NC(=O)[C@H](CO)NC(=O)[C@H](CS)NC(=O)[C@H](CCCCN)NC(=O)[C@@H](NC(=O)[C@H](CCCCN)NC(=O)[C@@H](N)C(C)C)[C@@H](C)O)C(C)C)C(C)C)C(C)C)C(=O)N[C@@H](CC(C)C)C(=O)N[C@H](C(=O)N[C@@H](CCCCN)C(=O)N[C@H](C(=O)N[C@@H](Cc1ccccc1)C(=O)N[C@@H](CCCCN)C(=O)N[C@@H](CO)C(=O)O)[C@@H](C)O)C(C)C [VKTKCSVPAVVYILVKTFKS]
MIC (Bacillus cereus): ≥ 116 µM
MIC (Escherichia coli): > 116 µM

CC[C@H](C)[C@H](NC(=O)[C@H](Cc1ccccc1)NC(=O)[C@@H](NC(=O)[C@H](CC(C)C)NC(=O)[C@H](CCCN=C(N)N)NC(=O)[C@H](CCCCN)NC(=O)[C@H](CCCN=C(N)N)NC(=O)[C@H](CCCCN)NC(=O)[C@H](CC(C)C)NC(=O)[C@H](CC(C)C)NC(=O)[C@@H](NC(=O)[C@@H](N)Cc1ccc(O)cc1)C(C)C)[C@@H](C)CC)C(=O)O [YVLLKRKRLIFI]
MIC [3]: > 200 µM
MIC [17]: ≥ 50 µM
MIC [4]: > 200 µM
MIC (Bacillus subtilis): ≥ 200 µM
